The source of these data is patent publication US20230142739A1, “PROTEIN-PROTEIN INTERACTION STABILIZERS” (The Regents of the University of California, priority 2020, published 2023).

Each structure is given as a SMILES string. pEC50: −log10 of the molar value. Marks after values point to notes of the source that are not given here. Some results are limits rather than exact numbers.

The target of assay [1] is ER (Homo sapiens, UniProt P31947). Description: MS (KD,app), ER. It counts as binding. The note with it: 24 hr incubation.
Assay [2] has as its target T1, p65_45/14-3-3γ (Homo sapiens, UniProt P61981). As to the kind of experiment: Fluorescence anisotropy compound titration, p65_45 peptide with 50 μM 14-3-3γ (CC50). The procedure: Biochemical assessment of fragments 1-7 used a fluorescence anisotropy (FA) assay. […] The subsequent outputs are herein term termed ‘half maximal complex concentration (CC50)’. […] We sought to develop a structure-activity relationship (SAR) based upon these four chemotypes with the specific goal to develop high affinity molecular glues which orthosterically engage with p65 and stabilize the 14-3-3/p65 complex.
During compound titrations, the 14-3-3γ concentration was constant 50 μM and the compound was titrated in a 1:1 dilution series. In protein titrations, 14-3-3γ was titrated in a 1:1 dilution series in the presence of 1 mM compound. […] All measurements were performed once.

Assay [3] concerns the target T1, p65_45/14-3-3γ. Description: Fluorescence anisotropy protein titration, p65_45 peptide/14-3-3γ in presence of 1 mM fragment. It counts as binding. More on the design: The full length 14-3-3γ was dialysis against 25 mM HEPES pH7.5; made in house; host or cells: E. coli BL21(DE3), pPROEX HTb. The procedure: SF: the fold-change of apparent KD in comparison to a DMSO control.
During compound titrations, the 14-3-3γ concentration was constant 50 μM and the compound was titrated in a 1:1 dilution series. In protein titrations, 14-3-3γ was titrated in a 1:1 dilution series in the presence of 1 mM compound. The plates (Corning 384 well plates, black, round bottom, low binding) were incubated for 3 h RT prior to fluorescence anisotropy (FA) measurements with the Tecan Infinite 500 plate reader (FITC dye: excitation 485 nm, emission 535 nm). Dilution series were prepared in FA buffer (10 mM HEPES pH 7.4, 150 mM NaCl, 0.1% Tween20). All measurements were performed once.

The target of assay [4] is T2, Pin1_72/14-3-3γ (Homo sapiens, UniProt P61981+Q13526).
T2 construct: the full length 14-3-3γ was dialysis against 25 mM HEPES pH 7.5; made in house; host or cells: E. coli BL21(DE3), pPROEX HTb
Description: Fluorescence anisotropy protein titration, Pin1_72/14-3-3γ at constant compound. The format is binding. The note with it: based on internal DMSO control and 100 μM fragment. The source says:
Inspired by the binding poses of 3 and 9 we combined their structural features to improve stabilization. […] In case of complex stabilization, a left shift of apparent KD values is expected, here described as stabilization factors (SF).
Fluorescence Anisotropy (FA) Assays.
For orientation: Polarisation of emitted light reports the rotation of a fluorescent probe.

[5] abbreviates: Table 9, fold-change of apparent KD vs DMSO control.
The mark [6] stands for this setting: fold-change of apparent KD in comparison to a DMSO control, 1 mM fragment.

T1 sequence (P61981 whole entry, other chains not shown, the tested form may be a part): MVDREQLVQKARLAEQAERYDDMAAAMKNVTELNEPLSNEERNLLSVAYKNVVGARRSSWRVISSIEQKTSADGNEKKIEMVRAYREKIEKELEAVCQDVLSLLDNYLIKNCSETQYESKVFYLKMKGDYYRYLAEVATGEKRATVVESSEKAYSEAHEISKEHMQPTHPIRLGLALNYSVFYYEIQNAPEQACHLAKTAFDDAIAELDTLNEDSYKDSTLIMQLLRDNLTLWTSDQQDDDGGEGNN
Chain of ER (P31947 whole entry, other chains not shown, the tested form may be a part): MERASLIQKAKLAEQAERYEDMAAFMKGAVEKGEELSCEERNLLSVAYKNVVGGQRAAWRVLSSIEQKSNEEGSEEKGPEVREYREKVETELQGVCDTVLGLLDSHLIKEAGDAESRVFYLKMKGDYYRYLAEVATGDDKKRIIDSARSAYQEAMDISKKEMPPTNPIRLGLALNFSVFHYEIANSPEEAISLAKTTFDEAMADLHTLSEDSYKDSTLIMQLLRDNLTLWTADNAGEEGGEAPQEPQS
T2 sequence (P61981 whole entry, other chains not shown): as the sequence (P61981 whole entry, other chains not shown, the tested form may be a part) above

`O=C(CCl)CCC1CCN(C(=O)C2(Nc3ccc(Cl)cc3)CCOCC2)CC1` yielded a Kd in assay [1] of 0.145 µM.

As for `O=C(CCl)NCCCC1CCN(C(=O)C2(Nc3ccc(Cl)cc3)CCOCC2)CC1`, the Kd in assay [1] is under 0.1 µM.

As to `C=CS(=O)(=O)NCC1CCN(C(=O)C2(Nc3ccc(Cl)cc3)CCOCC2)CC1`, the Kd in assay [1] stood at 0.125 µM.

Regarding `O=Cc1ccc(S(=O)(=O)N2CCC(CNC(=O)CCl)CC2)cc1`, the Kd in assay [1] is 150 µM.

In assay [1], `O=C(CCl)NCC1CCN(S(=O)(=O)c2ccc(Cl)cc2)CC1` returned a Kd of 7.15 µM.

For the compound `CC1CCc2ccccc2N1S(=O)(=O)c1ccc(C=O)cc1` (racemic) [24b, rac-4-[(2-methyl-1,2,3,4-tetrahydroquinolin-1-yl)sulfonyl]benzaldehyde], the pEC50 (as a rule, the EC50 on a negative log10 scale, so that one unit is a factor of ten) in assay [2] was 3.51. For the same compound, in assay [3] (setting [5]), the SF is listed as 36.

Consider `COC1CCCN(c2cc(C=O)ccc2[N+](=O)[O-])C1` (centres unmarked) [13e, 3-(3-methoxypiperidin-1-yl)-4-nitrobenzaldehyde], for which the “activity in FA compound titration” value in assay [2] is recorded as “did not elicit significant ternary complex formation”.

For `O=Cc1ccc([N+](=O)[O-])c(N2CCC(O)CC2)c1` [13f, 3-(4-hydroxypiperidin-1-yl)-4-nitrobenzaldehyde], the “activity in FA compound titration” value in assay [2] is given as “did not elicit significant ternary complex formation”.

As to `O=Cc1ccc([N+](=O)[O-])c(N2CCCC(O)C2)c1` (centres unmarked) [13l, 3-(3-hydroxypiperidin-1-yl)-4-nitrobenzaldehyde], in assay [2], the “activity in FA compound titration” value is on record as “did not elicit significant ternary complex formation”.

For `O=Cc1ccc([N+](=O)[O-])c(N2CCOCC2)c1` [13q, 3-(morpholin-4-yl)-4-nitrobenzaldehyde], in assay [2], the “activity in FA compound titration” value is reported as “did not elicit significant ternary complex formation”.

`O=Cc1ccc(-n2ccnc2Br)nc1` [16d, 6-(2-bromo-1H-imidazol-1-yl)pyridine-3-carbaldehyde]: the “activity in FA compound titration” value in assay [2] is “induced an increase in anisotropy”.

`O=Cc1ccc(-n2cncc2[C@H]2CCCN2CC2CC2)nc1` [16e, 6-{5-[(2R)-1-(cyclopropylmethyl)pyrrolidin-2-yl]-1H-imidazol-1-yl}pyridine-3-carbaldehyde]: the “activity in FA compound titration” value in assay [2] is reported as “induced an increase in anisotropy”.

In the case of `Cn1ccc(NS(=O)(=O)c2ccc(C=O)cc2)n1` [23b, 4-formyl-N-(1-methyl-1H-pyrazol-3-yl)benzene-1-sulfonamide], in assay [3] (setting [6]), the SF is reported as 1.5.

On to `CN(C)S(=O)(=O)c1ccc(C=O)cc1` [23c, 4-formyl-N,N-dimethylbenzene-1-sulfonamide], for which, in assay [3] (setting [6]), the SF came to 1.8.

Regarding `COC1CN(S(=O)(=O)c2ccc(C=O)cc2)C1` [23d, 4-[(3-methoxyazetidin-1-yl)sulfonyl]benzaldehyde], in assay [3] (setting [6]), the SF is given as 5.1.

Turning to `C[C@H]1CCCN1S(=O)(=O)c1ccc(C=O)cc1` [23e, 4-{[(2S)-2-methylpyrrolidin-1-yl]sulfonyl}benzaldehyde], in assay [3] (setting [6]), the SF was 20.6.

Turning to `CN1CCCN(S(=O)(=O)c2ccc(C=O)cc2)CC1` [23g, 4-[(4-methyl-1,4-diazepan-1-yl)sulfonyl]benzaldehyde], in assay [3] (setting [6]), the SF is reported as 4.0.

`CN1CCN(S(=O)(=O)c2ccc(C=O)cc2)CC1` [23h, 4-[(4-methylpiperazin-1-yl)sulfonyl]benzaldehyde]: the SF in assay [3] (setting [6]) is 3.3.

`CCN1CCN(S(=O)(=O)c2ccc(C=O)cc2)CC1` [23i, 4-[(4-ethylpiperazin-1-yl)sulfonyl]benzaldehyde]: the SF in assay [3] (setting [6]) is 3.3.

`CC(C)N1CCN(S(=O)(=O)c2ccc(C=O)cc2)CC1` [23j, 4-{[4-(propan-2-yl)piperazin-1-yl]sulfonyl}benzaldehyde]: the SF in assay [3] (setting [6]) is 5.5.

`COCCN1CCN(S(=O)(=O)c2ccc(C=O)cc2)CC1` [23l, 4-{[4-(2-methoxyethyl)piperazin-1-yl]sulfonyl}benzaldehyde]: the SF in assay [3] (setting [6]) was determined as 4.5.

Consider `O=Cc1ccc(S(=O)(=O)N2CCC(N3CCCC3)CC2)cc1` [23m, 4-{[4-(pyrrolidin-1-yl)piperidin-1-yl]sulfonyl}benzaldehyde], for which the SF in assay [3] (setting [6]) is 3.5.

Regarding `CN(C)C1CCN(S(=O)(=O)c2ccc(C=O)cc2)CC1` [23n, 4-{[4-(dimethylamino)piperidin-1-yl]sulfonyl}benzaldehyde], in assay [3] (setting [6]), the SF is 3.5.

Consider `CC(=O)N1CCN(S(=O)(=O)c2ccc(C=O)cc2)CC1` [23o, 4-[(4-acetylpiperazin-1-yl)sulfonyl]benzaldehyde], for which the SF in assay [3] (setting [6]) was determined as 4.5.

Take `O=Cc1ccc(S(=O)(=O)N2CCNC(=O)C2)cc1` [23p, 4-[(3-oxopiperazin-1-yl)sulfonyl]benzaldehyde]: in assay [3] (setting [6]), the SF worked out at 2.2.

Regarding `O=Cc1ccc(S(=O)(=O)N2CCCC(O)C2)cc1` (centres unmarked) [23q, 4-[(3-hydroxypiperidin-1-yl)sulfonyl]benzaldehyde], in assay [3] (setting [6]), the SF is listed as 10.3.

`COC1CCCN(S(=O)(=O)c2ccc(C=O)cc2)C1` (centres unmarked) [23r, 4-[(3-methoxypiperidin-1-yl)sulfonyl]benzaldehyde]: the SF in assay [3] (setting [6]) stood at 7.5.

With `O=Cc1ccc(S(=O)(=O)N2CCC(O)CC2)cc1` [23s, 4-[(4-hydroxypiperidin-1-yl)sulfonyl]benzaldehyde], the SF in assay [3] (setting [6]) is 7.2.

With `COC1CCN(S(=O)(=O)c2ccc(C=O)cc2)CC1` [23t, 4-[(4-methoxypiperidin-1-yl)sulfonyl]benzaldehyde], the SF in assay [3] (setting [6]) is listed as 16.5.

Regarding `O=Cc1ccc(S(=O)(=O)N2CCOCC2)cc1` [23u, 4-(morpholine-4-sulfonyl)benzaldehyde], the SF in assay [3] (setting [6]) stood at 6.3.

Regarding `CN(C1CCCCC1)S(=O)(=O)c1ccc(C=O)cc1` [23w, N-cyclohexyl-4-formyl-N-methylbenzene-1-sulfonamide], in assay [3] (setting [6]), the SF is reported as 12.7.

Take `CN(C1CCOCC1)S(=O)(=O)c1ccc(C=O)cc1` [23x, 4-formyl-N-methyl-N-(oxan-4-yl)benzene-1-sulfonamide]: the SF in assay [3] (setting [6]) is 5.9.

In turn, `O=Cc1ccc(S(=O)(=O)N2CCc3ccccc3C2)cc1` [23y, 4-(1,2,3,4-tetrahydroisoquinoline-2-sulfonyl)benzaldehyde] showed a pEC50 in assay [2] of 3.74. In addition, the SF in assay [3] (setting [5]) is given as 0.7^a; in assay [3] (setting [6]), 0.7.

For the compound `O=Cc1ccc(S(=O)(=O)N2CCc3ccccc32)cc1` [24a, 4-(2,3-dihydro-1H-indole-1-sulfonyl)benzaldehyde], the pEC50 in assay [2] is 3.66. Further, the SF in assay [3] (setting [5]) is recorded as 30.

`O=Cc1ccc(S(=O)(=O)N2CCCc3cc(F)ccc32)cc1` [24c, 4-[(6-fluoro-1,2,3,4-tetrahydroquinolin-1-yl)sulfonyl]benzaldehyde] gave a pEC50 in assay [2] of 3.85. In addition, the SF in assay [3] (setting [5]) is reported as 56.

As to `O=Cc1ccc(S(=O)(=O)N2CCCc3cc(Cl)ccc32)cc1` [24d, 4-[(6-chloro-1,2,3,4-tetrahydroquinolin-1-yl)sulfonyl]benzaldehyde], the pEC50 in assay [2] is 3.80. The SF in assay [3] (setting [5]) is given as 36.

Turning to `COc1ccc2c(c1)CCCN2S(=O)(=O)c1ccc(C=O)cc1` [24e, 4-[(6-methoxy-1,2,3,4-tetrahydroquinolin-1-yl)sulfonyl]benzaldehyde], the pEC50 in assay [2] was 3.92. Besides, the SF in assay [3] (setting [5]) is listed as 34.

In assay [2], `O=Cc1ccc(S(=O)(=O)N2CCOc3ccccc32)cc1` [24f, 4-(3,4-dihydro-2H-1,4-benzoxazine-4-sulfonyl)benzaldehyde] had a pEC50 of 3.66. Besides, in assay [3] (setting [5]), the SF stood at 23.

In assay [2], `O=Cc1ccc(S(=O)(=O)N2CCOc3ccc(F)cc32)cc1` [24g, 4-[(6-fluoro-3,4-dihydro-2H-1,4-benzoxazin-4-yl)sulfonyl]benzaldehyde] showed a pEC50 of 3.51. Also, the SF in assay [3] (setting [5]) is recorded as 22.

For the compound `O=Cc1ccc(S(=O)(=O)N2CCOc3cc(Cl)ccc32)cc1` [24h, 4-[(7-chloro-3,4-dihydro-2H-1,4-benzoxazin-4-yl)sulfonyl]benzaldehyde], the negative logarithm of the EC50 (pEC50) in assay [2] was 3.60. The SF in assay [3] (setting [5]) came to 28.

For `COc1ccc2c(c1)OCCN2S(=O)(=O)c1ccc(C=O)cc1` [24i, 4-[(7-methoxy-3,4-dihydro-2H-1,4-benzoxazin-4-yl)sulfonyl]benzaldehyde], in assay [2], the pEC50 is 3.96.

Consider `O=Cc1ccc(-n2ccnc2-c2ccccc2)cc1C(F)(F)F` [compound 14, 4-(2-phenyl-1H-imidazol-1-yl)-2-(trifluoromethyl)benzaldehyde], for which the “SF (fold stabilization)” value in assay [4] came to 1.2.

On to `O=Cc1ccc(-n2ccnc2-c2ccccc2)cc1O` [compound 19, 2-hydroxy-4-(2-phenyl-1H-imidazol-1-yl)benzaldehyde], for which the “SF (fold stabilization)” value in assay [4] is listed as 4.9.
